{"source": "patent US8530636B2", "about": "“Method for regulating protein function in cells in vivo using synthetic small molecules” (priority 2008, dated 2013)", "key": {"[1]": {"conditions": "cited from earlier work"}, "FKBP L106P-YFP fusion": {"molecular_target": "T1, FKBP L106P-YFP fusion (Homo sapiens, UniProt P62942, F37V)", "T1 construct": "expressed in transfected cells", "T1 sequence (P62942 with tags, fused parts or gaps F37V)": "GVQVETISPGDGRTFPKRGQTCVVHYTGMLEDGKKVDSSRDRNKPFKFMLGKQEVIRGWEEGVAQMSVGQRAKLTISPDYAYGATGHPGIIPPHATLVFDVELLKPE", "test": "Shield1 dose-response of FKBP-YFP fluorescence, flow cytometry", "format": "cell-based", "experimental": "(§1) Experiments were performed in triplicate."}, "[2]": {"molecular_target": "T2, FKBP variant V24A-YFP fusion protein (Homo sapiens, UniProt P62942, F37V/V25A)", "T2 construct": "expressed in transfected cells; host or cells: NIH3T3 (retroviral transduction)", "T2 sequence (P62942 2-108 V25A/F37V)": "as the sequence (P62942 with tags, fused parts or gaps F37V) above, with V24A, P106L counted along it", "test": "Shield1 dose-response of FKBP-YFP fluorescence, flow cytometry", "format": "cell-based", "conditions": "NIH3T3 cells stably expressing V24A FKBP-YFP", "experimental": "as §1"}, "FKBP F36V variant": {"molecular_target": "FKBP F36V variant (Homo sapiens, UniProt P62942, F37V)", "sequence (P62942 2-108 F37V limits assumed)": "as the sequence (P62942 with tags, fused parts or gaps F37V) above, with P106L counted along it", "conditions": "Clackson et al. 1998; cited from earlier work"}, "FKBP-YFP fusion proteins [3]": {"molecular_target": "FKBP-YFP fusion proteins (Homo sapiens, UniProt P62942, F37V)", "sequence (P62942 with tags, fused parts or gaps F37V)": "as the sequence (P62942 with tags, fused parts or gaps F37V) above", "test": "Kinetics of FKBP-YFP fluorescence upon addition of Shield1", "conditions": "L106P-YFP, various concentrations of Shield1"}, "FKBP-YFP fusion proteins [4]": {"system": "FKBP-YFP fusion proteins", "test": "Kinetics of FKBP-YFP fluorescence upon addition of Shield1"}, "[5]": {"system": "HCT116 L-L106P-IL-2 tumors", "format": "in vivo", "experimental": "FIGS. 22A-22D show graphs relating to the conditional stabilization of a secreted immunomodulatory protein leads. […]. Data are represented as the average IL-2 concentration ±SEM (n=3). […]. Tumor volume was determined by caliper measurement and monitored over time. Data are represented as the average tumor volume ±SEM (n=5).\n[…]. Tumors in the untreated control animals continued to increase in size over the course of the experiment. […].\n(§2) SCID or CD1 nu-/nu-mice (Charles River Co.) received subcutaneous dorsal injections of ˜1×10^7 cells, and tumors were allowed to establish as indicated. Animals were given an intraperitoneal injection of luciferin (225 mg/kg), anesthetized (2% isoflurane), and placed on the warmed stage (37° C.) of an IVIS 100 or IVIS 200 (Xenogen Product from Caliper Life Sciences) for imaging. Light produced was measured as photons/sec for designated regions of interest as described. Tumor volumes were also determined by caliper measurement, and mice were sacrificed when tumors reached 1.44 cm^3 for survival assays. In some experiments, serum samples were collected by retino-orbital bleedings and tumors collected post-mortem and homogenized for ELISA assay of cytokines. All experiments were run with institutional IACUC approval."}, "L106P-tsLuc": {"molecular_target": "T3, L106P-tsLuc (Homo sapiens, UniProt P62942, F37V)", "T3 construct": "expressed in transfected cells", "T3 sequence (P62942 with tags, fused parts or gaps F37V)": "as above", "test": "In vivo bioluminescence imaging of HCT116 L106P-luciferase xenografts", "parameters": "species or system SCID mice"}, "vvDD": {"system": "vvDD", "format": "cell-based, vaccinia virus"}, "HCT116 tumors": {"system": "HCT116 tumors", "test": "vvDD L-L106P-IL-2 in mice bearing HCT116 tumors"}, "[6]": {"conditions": "mouse, in vivo"}, "L-L106P-IL-2 [7]": {"molecular_target": "T4, L-L106P-IL-2 (Homo sapiens, UniProt P60568)", "T4 construct": "IL-2 signal peptide (L), human IL-2 (N); expressed in transfected cells; in culture (A11) or as xenograft in CD1 nu-/nu- mice (A13)", "T4 sequence (P60568 with tags, fused parts or gaps)": "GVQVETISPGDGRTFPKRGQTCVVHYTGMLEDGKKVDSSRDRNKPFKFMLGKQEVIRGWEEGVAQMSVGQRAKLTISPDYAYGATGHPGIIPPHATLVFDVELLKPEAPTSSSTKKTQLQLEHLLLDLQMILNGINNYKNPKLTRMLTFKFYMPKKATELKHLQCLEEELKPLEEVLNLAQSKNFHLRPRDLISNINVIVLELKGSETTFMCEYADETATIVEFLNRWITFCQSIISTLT", "test": "IL-2 secreted by HCT116 L-L106P-IL-2 cells, ELISA of culture media", "format": "cell-based", "conditions": "dose-dependent on Shield1 in the media", "experimental": "(§3) FIGS. 22A-22D show graphs relating to the conditional stabilization of a secreted immunomodulatory protein leads. […] Data are represented as the average IL-2 concentration ±SEM (n=3). […] Tumor volume was determined by caliper measurement and monitored over time. Data are represented as the average tumor volume ±SEM (n=5).\nInterleukin-2 (IL-2) is a cytokine that is instrumental in immune response, inducing the differentiation and proliferation of a variety of lymphocyte populations (Gaffen, S. L. and Liu, K. D. (2004) Cytokine 28:109-23). Recombinant IL-2 is approved for clinical treatment of renal cancers and is used in a variety of other cancer therapies. Polynucleotides encoding the L106P stability-affecting protein were inserted between polynucleotides of the IL-2 gene that encode the signal peptide and the remainder of the IL-2 protein to produce the chimeric gene, L-L106P-IL-2, which was stably introduced into HCT116 cells. […]\nThermostable luciferase or the human IL-2 gene were cloned into pBMN L106P iBlasticidin and used to generate amphotropic retrovirus (Banaszynski, L. A. et al. (2006) Cell. 126:995-1004). […] Cells grown in 96-well plates (2×10^4 cells/well) were treated with Shield1 as indicated and either bioluminescence measured using an IVIS 50 (Xenogen Product from Caliper Life Sciences) following luciferin addition (300 μg/mL), or media collected for ELISA."}, "L-L106P-IL-2 [8]": {"molecular_target": "T4, L-L106P-IL-2", "test": "IL-2 in tumor and serum of xenografted mice, ELISA", "format": "in vivo, CD1 nu-/nu-mice", "conditions": "48 hr after start", "experimental": "as §3\nAnalysis of IL-2 levels within the tumors of treated and untreated mice confirmed dose-dependent production of IL-2 at the tumor site in mice treated at 5 or 10 mg/kg Shield1 (FIG. 22C; p=0.032). […] A dose of 5 mg/kg Shield1 was sufficient to produce the same robust anti-tumor response as 10 mg/kg Shield1, while avoiding the increase in IL-2 serum levels associated with the higher ligand dose.\nas §2"}}, "note": "pEC50: −log10 of the molar value. “Also recorded” adds a separate entry of the source."}
{"substance": "C20-methallylrapamycin [MaRap]", "values": [{"measurement": "Pharmacokinetic properties in vivo", "setting": "[1]", "result": "poor pharmacokinetic properties in vivo"}]}
{"substance": "1-[2-(3,4,5-trimethoxy-phenyl)-butyryl]-piperazine-2-carboxylic acid 3-(3,4-dimethoxy-phenyl)-1-[3-(2-morpholin-4-yl-ethoxy)-phenyl]-propyl ester [Shield1]", "values": [{"measurement": "Stabilization of FKBP L106P-YFP fusion protein", "setting": "FKBP L106P-YFP fusion; 1 μM Shield1", "result": "fully stabilized"}, {"measurement": "pEC50", "setting": "FKBP L106P-YFP fusion; NIH3T3 cells stably expressing L106P-YFP, read-out: EC50 of Shield1 to stabilize the YFP fusion protein", "result": "~7.00"}, {"measurement": "pEC50", "setting": "[2]", "result": "~8.30"}, {"measurement": "Binding tighter to the F36V variant compared to wild-type FKBP", "setting": "FKBP F36V variant", "result": "about 1,000 fold"}, {"measurement": "Time until YFP expression is observed", "setting": "FKBP-YFP fusion proteins [3]", "result": "≤ 15", "unit": "min"}, {"measurement": "Time of maximum fluorescence after addition of Shield1", "setting": "FKBP-YFP fusion proteins [4]; NIH3T3 cells, FKBP-YFP variants", "result": 24, "unit": "h"}, {"measurement": "Time fluorescence is stably maintained without further addition of Shield1", "setting": "FKBP-YFP fusion proteins [4]; after the maximum at 24 hours", "result": "≥ 48", "unit": "h"}, {"measurement": "Tumor establishment", "setting": "[5]; cells pretreated with Shield1, then 10 mg/kg every 48 hours", "result": "Tumors failed to establish"}, {"measurement": "Tumor burden relative to untreated animals", "setting": "[5]; day 16, all Shield1-treated groups", "result": "significantly reduced tumor burden"}, {"measurement": "Tumor size", "setting": "[5]; i.p. 5 or 10 mg/kg every 48 hours from five days after implantation", "result": "tumor regression"}, {"measurement": "Time for bioluminescent signals to return to background", "setting": "L106P-tsLuc; 10 mg/kg ip", "result": "≤ 48", "unit": "h"}, {"measurement": "Increase in bioluminescent signal in the presence compared to the absence of Shield1", "setting": "L106P-tsLuc; 10 mg/kg ip, FIG. 21B", "result": "~10", "unit": "fold"}, {"measurement": "Time of maximum expression levels following treatment", "setting": "L106P-tsLuc; 10 mg/kg ip, L106P-tsLuc, FIG. 21A", "result": 12, "unit": "h"}, {"measurement": "Bioluminescence under periodic treatment", "setting": "L106P-tsLuc; 10 mg/kg once every 48 hours", "result": "maintain increased bioluminescence levels over the course of several weeks"}, {"measurement": "Bioluminescence with increasing doses", "setting": "L106P-tsLuc; 3, 6, or 10 mg/kg", "result": "increasing bioluminescence levels"}, {"measurement": "Time of peak luminescence following a single injection of ligand", "setting": "L106P-tsLuc; FIG. 7A, luciferase fused to FKBP F36V/L106P", "result": "about 10 hours"}, {"measurement": "Replication of the virus", "setting": "vvDD", "result": "did not affect the replication of the virus"}, {"measurement": "Treg infiltration into tumor", "setting": "HCT116 tumors; delayed clearance of virus", "result": "increase in Treg infiltration"}, {"measurement": "Survival of treated animals", "setting": "HCT116 tumors; no Shield1 during the first 72 hours after vvDD L-L106P-IL-2", "result": "greater percent survival of the treated animals"}, {"measurement": "Feeding behavior, body weight, overall activity", "setting": "[6]", "result": "did not appear to affect feeding behavior, body weight, or overall activity"}, {"measurement": "Dynamic range of secreted IL-2", "setting": "L-L106P-IL-2 [7]", "result": "approximately 25 fold"}, {"measurement": "IL-2 per gram tumor tissue", "setting": "L-L106P-IL-2 [8]; 5 mg/kg", "result": "more IL-2 than tumors from untreated mice"}, {"measurement": "Serum IL-2 levels", "setting": "L-L106P-IL-2 [8]; 5 mg/kg", "result": "did not produce any increase in serum IL-2 levels"}, {"measurement": "IL-2 per gram tumor tissue", "setting": "L-L106P-IL-2 [8]; 10 mg/kg", "result": "significantly higher levels of IL-2 than tumors from mice treated at 5 mg/kg"}, {"measurement": "Serum IL-2 levels", "setting": "L-L106P-IL-2 [8]; 10 mg/kg", "result": "significantly higher levels of serum IL-2; also recorded: significantly elevated levels"}]}
